Data on seven molecules can be found in PMC11352961, “Peptide dendrimers transfecting CRISPR/Cas9 plasmid DNA: optimization and mechanism” (RSC Chemical Biology, 2024).

In one data set the test system is HEK293 cells. In words: Cell viability by PrestoBlue assay after transfection, HEK cells. It is filed as cell-based. Particulars: 4 h.
A further data set concerns HeLa cells. Kind of data set: Cell viability by PrestoBlue assay after transfection, HeLa cells. Particulars: 4 h. It is filed as cell-based.

Bridge positions count the residues as written; N and C are the ends. Square brackets hold non-standard residues; d marks the D form. Side chains are listed from the residue outwards. Peptide text beside a SMILES is read from it. I, II: the chains in the order shown. * marks the point of attachment. Stearoyl = CCCCCCCCCCCCCCCCCC(=O)*; Palmitoyl = CCCCCCCCCCCCCCCC(=O)*

Regarding `CC(C)C[C@H](NC(=O)[C@H](CCCCN)NC(=O)[C@H](CCCCNC(=O)[C@H](CC(C)C)NC(=O)[C@H](CCCCN)NC(=O)[C@H](CCCCNC(=O)[C@H](CC(C)C)NC(=O)[C@@H](N)CCCCN)NC(=O)[C@H](CC(C)C)NC(=O)[C@@H](N)CCCCN)NC(=O)[C@H](CC(C)C)NC(=O)[C@H](CCCCN)NC(=O)[C@H](CCCCNC(=O)[C@H](CC(C)C)NC(=O)[C@@H](N)CCCCN)NC(=O)[C@H](CC(C)C)NC(=O)[C@@H](N)CCCCN)C(=O)NCCCC[C@H](NC(=O)[C@H](CC(C)C)NC(=O)[C@H](CCCCN)NC(=O)[C@H](CCCCNC(=O)[C@H](CC(C)C)NC(=O)[C@H](CCCCN)NC(=O)[C@H](CCCCNC(=O)[C@H](CC(C)C)NC(=O)[C@@H](N)CCCCN)NC(=O)[C@H](CC(C)C)NC(=O)[C@@H](N)CCCCN)NC(=O)[C@H](CC(C)C)NC(=O)[C@H](CCCCN)NC(=O)[C@H](CCCCNC(=O)[C@H](CC(C)C)NC(=O)[C@@H](N)CCCCN)NC(=O)[C@H](CC(C)C)NC(=O)[C@@H](N)CCCCN)C(=O)NCC(=O)N[C@@H](CO)C(=O)N[C@@H](CS)C(N)=O` [G123KL, reference compound] (I: H-KLK([Leu-Lys])KLKKLKGSC-NH2 / II: H-KLK([Leu-Lys])KLKKL / III: H-KLK([Leu-Lys])KL / IV: H-KLK([Leu-Lys])KL; amide I:6-IV:C, I:9-II:C, II:6-III:C), the “% viability HEK cells” value with HEK293 cells came out at 52 ± 9%.
As to `CCCCCCCCCCCCCCCCCC(=O)NCCCC[C@H](NC(=O)[C@H](CCCCNC(=O)CCCCCCCCCCCCCCCCC)NC(=O)[C@H](CCCCNC(=O)[C@H](CC(C)C)NC(=O)[C@H](CCCCN)NC(=O)[C@H](CCCCNC(=O)[C@H](CC(C)C)NC(=O)[C@H](CCCCN)NC(=O)[C@H](CCCCNC(=O)[C@H](CC(C)C)NC(=O)[C@@H](N)CCCCN)NC(=O)[C@H](CC(C)C)NC(=O)[C@@H](N)CCCCN)NC(=O)[C@H](CC(C)C)NC(=O)[C@H](CCCCN)NC(=O)[C@H](CCCCNC(=O)[C@H](CC(C)C)NC(=O)[C@@H](N)CCCCN)NC(=O)[C@H](CC(C)C)NC(=O)[C@@H](N)CCCCN)NC(=O)[C@H](CC(C)C)NC(=O)[C@H](CCCCN)NC(=O)[C@H](CCCCNC(=O)[C@H](CC(C)C)NC(=O)[C@H](CCCCN)NC(=O)[C@H](CCCCNC(=O)[C@H](CC(C)C)NC(=O)[C@@H](N)CCCCN)NC(=O)[C@H](CC(C)C)NC(=O)[C@@H](N)CCCCN)NC(=O)[C@H](CC(C)C)NC(=O)[C@H](CCCCN)NC(=O)[C@H](CCCCNC(=O)[C@H](CC(C)C)NC(=O)[C@@H](N)CCCCN)NC(=O)[C@H](CC(C)C)NC(=O)[C@@H](N)CCCCN)C(N)=O` [Z2] (I: H-KLK([Leu-Lys])KLKKLKK(Stearoyl)K(Stearoyl)-NH2 / II: H-KLK([Leu-Lys])KLKKL / III: H-KLK([Leu-Lys])KL / IV: H-KLK([Leu-Lys])KL; amide I:6-IV:C, I:9-II:C, II:6-III:C), in the data set with HEK293 cells, the “% viability HEK cells” value was 79 ± 11%. Further, the “% viability HeLa cells” value in the data set on HeLa cells came to 47 ± 3%.
Taken in the same sequence, the figures for `CC(C)C[C@H](NC(=O)[C@H](CC(C)C)NC(=O)[C@H](CC(C)C)NC(=O)[C@H](CC(C)C)NC(=O)[C@H](CC(C)C)NC(=O)[C@H](CCCCNC(=O)[C@H](CC(C)C)NC(=O)[C@H](CCCCN)NC(=O)[C@H](CCCCNC(=O)[C@H](CC(C)C)NC(=O)[C@H](CCCCN)NC(=O)[C@H](CCCCNC(=O)[C@H](CC(C)C)NC(=O)[C@@H](N)CCCCN)NC(=O)[C@H](CC(C)C)NC(=O)[C@@H](N)CCCCN)NC(=O)[C@H](CC(C)C)NC(=O)[C@H](CCCCN)NC(=O)[C@H](CCCCNC(=O)[C@H](CC(C)C)NC(=O)[C@@H](N)CCCCN)NC(=O)[C@H](CC(C)C)NC(=O)[C@@H](N)CCCCN)NC(=O)[C@H](CC(C)C)NC(=O)[C@H](CCCCN)NC(=O)[C@H](CCCCNC(=O)[C@H](CC(C)C)NC(=O)[C@H](CCCCN)NC(=O)[C@H](CCCCNC(=O)[C@H](CC(C)C)NC(=O)[C@@H](N)CCCCN)NC(=O)[C@H](CC(C)C)NC(=O)[C@@H](N)CCCCN)NC(=O)[C@H](CC(C)C)NC(=O)[C@H](CCCCN)NC(=O)[C@H](CCCCNC(=O)[C@H](CC(C)C)NC(=O)[C@@H](N)CCCCN)NC(=O)[C@H](CC(C)C)NC(=O)[C@@H](N)CCCCN)C(N)=O` [Z3] (I: H-KLK([Leu-Lys])KLKKLKLLLLL-NH2 / II: H-KLK([Leu-Lys])KLKKL / III: H-KLK([Leu-Lys])KL / IV: H-KLK([Leu-Lys])KL; amide I:6-IV:C, I:9-II:C, II:6-III:C) were 76 ± 7% and 51 ± 5%.
The corresponding values for `CCCCCCCCCCCCCCCC(=O)NCCCC[C@H](NC(=O)[C@H](CCCCNC(=O)[C@H](CC(C)C)NC(=O)[C@H](CCCCN)NC(=O)[C@H](CCCCNC(=O)[C@H](CC(C)C)NC(=O)[C@H](CCCCN)NC(=O)[C@H](CCCCNC(=O)[C@H](CC(C)C)NC(=O)[C@@H](N)CCCCN)NC(=O)[C@H](CC(C)C)NC(=O)[C@@H](N)CCCCN)NC(=O)[C@H](CC(C)C)NC(=O)[C@H](CCCCN)NC(=O)[C@H](CCCCNC(=O)[C@H](CC(C)C)NC(=O)[C@@H](N)CCCCN)NC(=O)[C@H](CC(C)C)NC(=O)[C@@H](N)CCCCN)NC(=O)[C@H](CC(C)C)NC(=O)[C@H](CCCCN)NC(=O)[C@H](CCCCNC(=O)[C@H](CC(C)C)NC(=O)[C@H](CCCCN)NC(=O)[C@H](CCCCNC(=O)[C@H](CC(C)C)NC(=O)[C@@H](N)CCCCN)NC(=O)[C@H](CC(C)C)NC(=O)[C@@H](N)CCCCN)NC(=O)[C@H](CC(C)C)NC(=O)[C@H](CCCCN)NC(=O)[C@H](CCCCNC(=O)[C@H](CC(C)C)NC(=O)[C@@H](N)CCCCN)NC(=O)[C@H](CC(C)C)NC(=O)[C@@H](N)CCCCN)C(N)=O` [Z4] (I: H-KLK([Leu-Lys])KLKKLKK(Palmitoyl)-NH2 / II: H-KLK([Leu-Lys])KLKKL / III: H-KLK([Leu-Lys])KL / IV: H-KLK([Leu-Lys])KL; amide I:6-IV:C, I:9-II:C, II:6-III:C) are 89 ± 11% and 88 ± 11%.
The corresponding values for `CCCCCCCCCCCCCCCCCC(=O)NCCCC[C@H](NC(=O)[C@H](CCCCNC(=O)[C@H](CC(C)C)NC(=O)[C@H](CCCCN)NC(=O)[C@H](CCCCNC(=O)[C@H](CC(C)C)NC(=O)[C@H](CCCCN)NC(=O)[C@H](CCCCNC(=O)[C@H](CC(C)C)NC(=O)[C@@H](N)CCCCN)NC(=O)[C@H](CC(C)C)NC(=O)[C@@H](N)CCCCN)NC(=O)[C@H](CC(C)C)NC(=O)[C@H](CCCCN)NC(=O)[C@H](CCCCNC(=O)[C@H](CC(C)C)NC(=O)[C@@H](N)CCCCN)NC(=O)[C@H](CC(C)C)NC(=O)[C@@H](N)CCCCN)NC(=O)[C@H](CC(C)C)NC(=O)[C@H](CCCCN)NC(=O)[C@H](CCCCNC(=O)[C@H](CC(C)C)NC(=O)[C@H](CCCCN)NC(=O)[C@H](CCCCNC(=O)[C@H](CC(C)C)NC(=O)[C@@H](N)CCCCN)NC(=O)[C@H](CC(C)C)NC(=O)[C@@H](N)CCCCN)NC(=O)[C@H](CC(C)C)NC(=O)[C@H](CCCCN)NC(=O)[C@H](CCCCNC(=O)[C@H](CC(C)C)NC(=O)[C@@H](N)CCCCN)NC(=O)[C@H](CC(C)C)NC(=O)[C@@H](N)CCCCN)C(=O)N[C@@H](CS)C(N)=O` [Z12] (I: H-KLK([Leu-Lys])KLKKLKK(Stearoyl)C-NH2 / II: H-KLK([Leu-Lys])KLKKL / III: H-KLK([Leu-Lys])KL / IV: H-KLK([Leu-Lys])KL; amide I:6-IV:C, I:9-II:C, II:6-III:C) are 80 ± 5% and 112 ± 10%.
As to `CCCCCCCCCCCCCCCCCC(=O)NCCCC[C@H](NC(=O)[C@H](CCCCNC(=O)[C@H](CC(C)C)NC(=O)[C@H](CCCCN)NC(=O)[C@H](CCCCNC(=O)[C@H](CC(C)C)NC(=O)[C@H](CCCCN)NC(=O)[C@H](CCCCNC(=O)[C@H](CC(C)C)NC(=O)[C@@H](N)CCCCN)NC(=O)[C@H](CC(C)C)NC(=O)[C@@H](N)CCCCN)NC(=O)[C@H](CC(C)C)NC(=O)[C@H](CCCCN)NC(=O)[C@H](CCCCNC(=O)[C@H](CC(C)C)NC(=O)[C@@H](N)CCCCN)NC(=O)[C@H](CC(C)C)NC(=O)[C@@H](N)CCCCN)NC(=O)[C@H](CC(C)C)NC(=O)[C@H](CCCCN)NC(=O)[C@H](CCCCNC(=O)[C@H](CC(C)C)NC(=O)[C@H](CCCCN)NC(=O)[C@H](CCCCNC(=O)[C@H](CC(C)C)NC(=O)[C@@H](N)CCCCN)NC(=O)[C@H](CC(C)C)NC(=O)[C@@H](N)CCCCN)NC(=O)[C@H](CC(C)C)NC(=O)[C@H](CCCCN)NC(=O)[C@H](CCCCNC(=O)[C@H](CC(C)C)NC(=O)[C@@H](N)CCCCN)NC(=O)[C@H](CC(C)C)NC(=O)[C@@H](N)CCCCN)C(=O)N[C@@H](C)C(N)=O` [Z15] (I: H-KLK([Leu-Lys])KLKKLKK(Stearoyl)A-NH2 / II: H-KLK([Leu-Lys])KLKKL / III: H-KLK([Leu-Lys])KL / IV: H-KLK([Leu-Lys])KL; amide I:6-IV:C, I:9-II:C, II:6-III:C), the “% viability HEK cells” value in the data set with HEK293 cells worked out at 71 ± 7%. Further, in the data set with HeLa cells, the “% viability HeLa cells” value is 107 ± 10%.
The corresponding values for `CCCCCCCCCCCCCCCCCC(=O)NCCCC[C@@H](NC(=O)[C@@H](CCCCNC(=O)[C@@H](CC(C)C)NC(=O)[C@@H](CCCCN)NC(=O)[C@@H](CCCCNC(=O)[C@@H](CC(C)C)NC(=O)[C@@H](CCCCN)NC(=O)[C@@H](CCCCNC(=O)[C@@H](CC(C)C)NC(=O)[C@H](N)CCCCN)NC(=O)[C@@H](CC(C)C)NC(=O)[C@H](N)CCCCN)NC(=O)[C@@H](CC(C)C)NC(=O)[C@@H](CCCCN)NC(=O)[C@@H](CCCCNC(=O)[C@@H](CC(C)C)NC(=O)[C@H](N)CCCCN)NC(=O)[C@@H](CC(C)C)NC(=O)[C@H](N)CCCCN)NC(=O)[C@@H](CC(C)C)NC(=O)[C@@H](CCCCN)NC(=O)[C@@H](CCCCNC(=O)[C@@H](CC(C)C)NC(=O)[C@@H](CCCCN)NC(=O)[C@@H](CCCCNC(=O)[C@@H](CC(C)C)NC(=O)[C@H](N)CCCCN)NC(=O)[C@@H](CC(C)C)NC(=O)[C@H](N)CCCCN)NC(=O)[C@@H](CC(C)C)NC(=O)[C@@H](CCCCN)NC(=O)[C@@H](CCCCNC(=O)[C@@H](CC(C)C)NC(=O)[C@H](N)CCCCN)NC(=O)[C@@H](CC(C)C)NC(=O)[C@H](N)CCCCN)C(=O)N[C@H](CS)C(N)=O` [Z20] (I: H-[dK][dL][dK]([dL-dK])[dK][dL][dK][dK][dL][dK][dK](Stearoyl)[dC]-NH2 / II: H-[dK][dL][dK]([dL-dK])[dK][dL][dK][dK][dL] / III: H-[dK][dL][dK]([dL-dK])[dK][dL] / IV: H-[dK][dL][dK]([dL-dK])[dK][dL]; amide I:6-IV:C, I:9-II:C, II:6-III:C) are 85 ± 9% and 85 ± 9%.
